From patent US20060257481A1, “Sustained release formulation and dosing schedule of leukotriene synthesis inhibitor for human therapy” (deCODE Genetics ehf., priority 2005, published 2006)

Assay: Effect of a high fat meal on DG-031 pharmacokinetics
Type: in vivo, human
Details: administration with a high fat meal
From the text: In the context of treatment of a single individual, a steady state concentration may be expected to fluctuate from day-to-day with variations in the individual's diet, level activity, state of health, co-administration of other medications, and the like. DG-031 is preferably administered with food to improve adsorption. […] In this context, the steady state concentration for an individual refers to an average concentration taken at multiple time points, to adjust for such fluctuation.

## O=C(O)[C@@H](c1ccc(OCc2ccc3ccccc3n2)cc1)C1CCCC1 [DG-031, (R)-(+)-alpha-cyclopentyl-4-(2-quinolinylmethoxy)-Benzeneacetic acid]
  Increase in AUC: 30%
  Increase in Cmax: 150%
  Tmax: no effect
  half-life: shorter half-life
